Data published in PubChem BioAssay (NCI).
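Cultured in 96-well plates, cells were exposed to test compound for 48 hours across five concentrations. Here, GI50 denotes the concentration required for 50% inhibition of growth. The concentration for full growth arrest is given as TGI.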

Key:
Assay in all cases: inhibition of tumour cell growth, NCI panel, 48 h
[1] = system: 786-0 renal
[2] = system: A498 renal
[3] = system: A549 NSCLC
[4] = system: ACHN renal
[5] = system: BT-549 breast
[6] = system: CAKI-1 renal
[7] = system: CCRF-CEM leukemia
[8] = system: COLO 205 colon
[9] = system: DU-145 prostate
[10] = system: EKVX NSCLC
[11] = system: HCT-15 colon
[12] = system: HL-60(TB) leukemia
[13] = system: HOP-62 NSCLC
[14] = system: HOP-92 NSCLC
[15] = system: HS 578T breast
[16] = system: HT29 colon
[17] = system: IGROV1 ovarian
[18] = system: K-562 leukemia
[19] = system: KM12 colon
[20] = system: LOX IMVI melanoma
[21] = system: M14 melanoma
[22] = system: MALME-3M melanoma
[23] = system: MDA-MB-231 breast
[24] = system: MDA-MB-435
[25] = system: MOLT-4 leukemia
[26] = system: NCI-H23 lung
[27] = system: NCI-H460 lung
[28] = system: NCI-H522 lung
[29] = system: NCI/ADR-RES ovarian
[30] = system: OVCAR-3 ovarian
[31] = system: OVCAR-4 ovarian
[32] = system: OVCAR-5 ovarian
[33] = system: OVCAR-8 ovarian
[34] = system: PC-3 prostate
[35] = system: RPMI-8226 leukemia
[36] = system: SF-268 CNS
[37] = system: SF-295 CNS
[38] = system: SF-539 CNS
[39] = system: SK-MEL-2 melanoma
[40] = system: SK-MEL-28 melanoma
[41] = system: SK-MEL-5 melanoma
[42] = system: SK-OV-3 ovarian
[43] = system: SNB-19 CNS
[44] = system: SNB-75 CNS
[45] = system: SR leukemia
[46] = system: SW-620 colon
[47] = system: T-47D breast
[48] = system: TK-10 renal
[49] = system: U251 CNS
[50] = system: UACC-257 melanoma
[51] = system: UACC-62 melanoma
[52] = system: UO-31 renal
[53] = system: HCC-2998 colon
[54] = system: HCT-116 colon
[55] = system: MCF7 breast
[56] = system: NCI-H226 lung
[57] = system: SN12C renal
[58] = system: RXF 393 renal

Cc1ccc(Nc2nc(=O)c3c4ccccc4n(C(=O)OC(C)(C)C)c3s2)cc1
TGI [1]: 38.5 µM | TGI [2]: > 100 µM | TGI [3]: > 100 µM | TGI [4]: > 100 µM | TGI [5]: 56.5 µM | TGI [6]: 66 µM | TGI [7]: > 100 µM | TGI [8]: > 100 µM | TGI [9]: > 100 µM | TGI [10]: > 100 µM | TGI [11]: > 100 µM | TGI [12]: 59 µM | TGI [13]: 64.1 µM | TGI [14]: > 100 µM | TGI [15]: > 100 µM | TGI [16]: > 100 µM | TGI [17]: > 100 µM | TGI [18]: > 100 µM | TGI [19]: 54.5 µM | TGI [20]: 46.7 µM | TGI [21]: 44.1 µM | TGI [22]: 66.3 µM | TGI [23]: > 100 µM | TGI [24]: 38.1 µM | TGI [25]: > 100 µM | TGI [26]: 50.4 µM | TGI [27]: 43.1 µM | TGI [28]: 59.3 µM | TGI [29]: 32.5 µM | TGI [30]: 55.7 µM | TGI [31]: > 100 µM | TGI [32]: 48.3 µM | TGI [33]: > 100 µM | TGI [34]: > 100 µM | TGI [35]: 48.7 µM | TGI [36]: 59.3 µM | TGI [37]: 65.6 µM | TGI [38]: 79.8 µM | TGI [39]: 59.2 µM | TGI [40]: > 100 µM | TGI [41]: 27 µM | TGI [42]: > 100 µM | TGI [43]: > 100 µM | TGI [44]: > 100 µM | TGI [45]: 44.9 µM | TGI [46]: > 100 µM | TGI [47]: > 100 µM | TGI [48]: 99.9 µM | TGI [49]: > 100 µM | TGI [50]: > 100 µM | TGI [51]: 63.5 µM | TGI [52]: 22.8 µM

NC(N)=N/N=C/c1c(-c2ccc(Cl)c([N+](=O)[O-])c2)nc2sc(Cl)cn12
TGI [1]: > 100 µM | TGI [3]: 7 µM | TGI [5]: 3.48 µM | TGI [7]: > 100 µM | TGI [53]: > 100 µM | TGI [54]: > 100 µM | TGI [11]: > 100 µM | TGI [12]: > 100 µM | TGI [13]: > 100 µM | TGI [15]: 5.54 µM | TGI [16]: 6.85 µM | TGI [17]: 3.18 µM | TGI [18]: > 100 µM | TGI [22]: 5.58 µM | TGI [55]: 6.3 µM | TGI [56]: > 100 µM | TGI [27]: 8.08 µM | TGI [28]: 3.07 µM | TGI [29]: > 100 µM | TGI [32]: > 100 µM | TGI [33]: 4.08 µM | TGI [35]: > 100 µM | TGI [38]: 4.98 µM | TGI [41]: 15.9 µM | TGI [57]: 4.88 µM | TGI [45]: > 100 µM | TGI [48]: 58.5 µM | TGI [49]: > 100 µM | TGI [50]: 3.79 µM | TGI [52]: 3.47 µM

COC(=O)c1ccc2[nH]c(O)c(C(=Nc3ccc(N(C)C(=O)CN4CCN(C)CC4)cc3)c3ccc(C)cc3)c2c1
GI50 [1]: 0.336 µM | TGI [1]: 1.78 µM | GI50 [2]: 0.458 µM | TGI [2]: 1.96 µM | GI50 [5]: 1.13 µM | TGI [5]: 2.45 µM | GI50 [6]: 0.132 µM | TGI [6]: 1.48 µM | GI50 [7]: 0.355 µM | GI50 [54]: 0.124 µM | TGI [54]: 1.27 µM | GI50 [15]: 0.105 µM | TGI [15]: 0.977 µM | GI50 [22]: 0.618 µM | TGI [22]: 1.88 µM | GI50 [35]: 0.494 µM | TGI [35]: 2.47 µM | GI50 [58]: 0.221 µM | TGI [58]: 1.05 µM | GI50 [38]: 0.307 µM | TGI [38]: 1.18 µM | GI50 [41]: 1.11 µM | TGI [41]: 2.39 µM | GI50 [45]: 0.153 µM | TGI [45]: 1.34 µM | GI50 [49]: 0.571 µM | TGI [49]: 2 µM | GI50 [52]: 0.353 µM | TGI [52]: 1.47 µM

N#Cc1cccc2c1Sc1ccccc1N2
TGI [1]: 67.2 µM | TGI [2]: 58.3 µM | TGI [3]: > 100 µM | TGI [4]: > 100 µM | TGI [5]: 79.8 µM | TGI [6]: > 100 µM | TGI [7]: > 100 µM | TGI [8]: 60.2 µM | TGI [9]: > 100 µM | TGI [10]: 97.4 µM | TGI [53]: > 100 µM | TGI [54]: > 100 µM | TGI [11]: > 100 µM | TGI [12]: > 100 µM | TGI [14]: > 100 µM | TGI [16]: > 100 µM | TGI [17]: > 100 µM | TGI [18]: > 100 µM | TGI [19]: > 100 µM | TGI [20]: 36.5 µM | TGI [21]: > 100 µM | TGI [22]: > 100 µM | TGI [55]: > 100 µM | TGI [23]: > 100 µM | TGI [24]: > 100 µM | TGI [25]: 85.7 µM | TGI [56]: > 100 µM | TGI [26]: > 100 µM | TGI [27]: > 100 µM | TGI [29]: > 100 µM | TGI [30]: > 100 µM | TGI [32]: 72.8 µM | TGI [33]: > 100 µM | TGI [34]: > 100 µM | TGI [35]: > 100 µM | TGI [58]: 33.7 µM | TGI [36]: > 100 µM | TGI [37]: 69.1 µM | TGI [38]: 64.2 µM | TGI [41]: 1.72 µM | TGI [42]: > 100 µM | TGI [57]: > 100 µM | TGI [43]: > 100 µM | TGI [44]: 3.15 µM | TGI [45]: > 100 µM | TGI [46]: > 100 µM | TGI [47]: > 100 µM | TGI [48]: 75.8 µM | TGI [49]: > 100 µM | TGI [50]: > 100 µM | TGI [51]: > 100 µM | TGI [52]: 87.9 µM
